Reference: PMC9090415, “Discovery of small molecule inhibitors of Plasmodium falciparum apicoplast DNA polymerase” (Journal of Enzyme Inhibition and Medicinal Chemistry, 2022)

Target: T1, bacteriophage T4 DNA polymerase (Enterobacteria phage T4, UniProt P04415)
T1 construct: made in house
T1 sequence (P04415 1-898): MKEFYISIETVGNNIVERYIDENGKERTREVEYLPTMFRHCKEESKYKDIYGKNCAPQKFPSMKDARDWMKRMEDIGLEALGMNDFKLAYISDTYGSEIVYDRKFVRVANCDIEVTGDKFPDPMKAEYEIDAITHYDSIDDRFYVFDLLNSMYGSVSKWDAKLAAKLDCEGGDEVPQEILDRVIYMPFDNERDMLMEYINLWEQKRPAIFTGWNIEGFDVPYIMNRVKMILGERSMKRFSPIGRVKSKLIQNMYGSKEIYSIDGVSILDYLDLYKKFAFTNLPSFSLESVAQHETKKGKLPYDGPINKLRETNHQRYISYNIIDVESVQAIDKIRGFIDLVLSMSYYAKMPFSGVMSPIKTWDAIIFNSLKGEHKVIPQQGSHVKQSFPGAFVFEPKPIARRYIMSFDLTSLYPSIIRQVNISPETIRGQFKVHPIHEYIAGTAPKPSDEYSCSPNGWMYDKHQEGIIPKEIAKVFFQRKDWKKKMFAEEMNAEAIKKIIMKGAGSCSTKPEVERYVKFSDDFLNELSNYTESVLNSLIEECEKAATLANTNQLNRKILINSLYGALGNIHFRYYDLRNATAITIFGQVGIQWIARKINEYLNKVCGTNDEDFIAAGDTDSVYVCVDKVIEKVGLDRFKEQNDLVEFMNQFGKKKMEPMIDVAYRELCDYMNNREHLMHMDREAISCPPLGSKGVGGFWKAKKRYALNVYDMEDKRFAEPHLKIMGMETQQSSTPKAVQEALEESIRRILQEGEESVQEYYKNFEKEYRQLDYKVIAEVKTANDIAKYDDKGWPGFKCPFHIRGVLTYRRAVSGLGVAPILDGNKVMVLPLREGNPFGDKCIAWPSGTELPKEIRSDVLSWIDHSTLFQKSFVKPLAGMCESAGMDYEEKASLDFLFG
Test: Counter-screen against bacteriophage T4 DNA polymerase
Format: biochemical
Conditions: for % inhibition T4 10' 2.5 / % inhibition T4 10' 5 / % inhibition T4 10' 10 / % inhibition T4 10' 20 / % inhibition T4 10' 40 / % inhibition T4 10' 80: read at 10'
Description: Codon-optimized, exonuclease-deficient Pf-apPOL was overexpressed in E. coli BL21 (DE3) and purified as described. The protein was dialysed against two, 1-liter changes of 20 mM Tris-HCl (pH 8.0), 400 mM NaCl, and 20% glycerol. Plasmodium bergei and Babesia bovis apPOLs (Pb-apPOL and Bb-apPOL, respectively) were codon-optimized, expressed, and purified as for Pf-apPOL[15]. Bacteriophage T4 DNA polymerase was purified as described. The DNA oligonucleotides used to make the high-throughput substrate were obtained from Integrated DNA Technologies. Deoxynucleotides were purchased from Strategene. All other materials came from Fisher Scientific.
Each compound was tested in a dose-response format to determine IC50 values. […] T4 DNA polymerase can be produced in large quantities, and is in the same family (B-family) as the replicative human DNA polymerases (α, δ, and ε)[20].

## Cc1ccc(C(=O)/C=C/C=C/C=C/N(C)C)o1 [Molecule 96, CN(/C=C/C=C/C=C/C(=O)c1ccc(o1)C)C]
DRC-2, concentration 10
  % inhibition T4 10': 11%
DRC-2, concentration 5
  % inhibition T4 90': 11%

## Cc1ccc(C)n1-c1ccc(C(=O)NNC(=O)c2ccc3nccnc3c2)cc1 [Molecule 53, O=C(c1ccc(cc1)n1c(C)ccc1C)NNC(=O)c1ccc2c(c1)nccn2]
DRC-2, concentration 2.5
  % inhibition T4 10': 15%
  % inhibition T4 40': 15%
DRC-2, concentration 5
  % inhibition T4 10': 24%
  % inhibition T4 40': 24%
  % inhibition T4 90': 22%
DRC-2, concentration 10
  % inhibition T4 10': 29%
  % inhibition T4 40': 29%
  % inhibition T4 180': 22%
DRC-2, concentration 20
  % inhibition T4 10': 31%
  % inhibition T4 40': 31%
  % inhibition T4 90': 29%
  % inhibition T4 180': 24%
DRC-2, concentration 40
  % inhibition T4 10': 29%
  % inhibition T4 40': 29%
  % inhibition T4 90': 29%
DRC-2, concentration 80
  % inhibition T4 10': 38%
  % inhibition T4 40': 38%

## N#Cc1c(O)nc(N2CCCCC2)nc1-c1ccc2c(c1)OCO2 [KU0083146]
DRC-1, concentration 2.5
  % inhibition T4 10' 2.5: -1.681%
DRC-1, concentration 5
  % inhibition T4 10' 5: -6.153%
DRC-1, concentration 10
  % inhibition T4 10' 10: -0.208%
DRC-1, concentration 20
  % inhibition T4 10' 20: -4.89%
DRC-1, concentration 40
  % inhibition T4 10' 40: 2.23%
DRC-1, concentration 80
  % inhibition T4 10' 80: 27.8578%
DRC-1, read at 70', concentration 2.5
  % inhibition T4 70' 2.5: -2.1541%
DRC-1, read at 70', concentration 5
  % inhibition T4 70' 5: -7.277%
DRC-1, read at 70', concentration 10
  % inhibition T4 70' 10: -0.8576%
DRC-1, read at 70', concentration 20
  % inhibition T4 70' 20: -6.699%
DRC-1, read at 70', concentration 40
  % inhibition T4 70' 40: -0.3941%
DRC-1, read at 70', concentration 80
  % inhibition T4 70' 80: 25.8853%
DRC-1, read at 130', concentration 2.5
  % inhibition T4 130' 2.5: -4.596%
DRC-1, read at 130', concentration 5
  % inhibition T4 130' 5: -9.967%
DRC-1, read at 130', concentration 10
  % inhibition T4 130' 10: -3.465%
DRC-1, read at 130', concentration 20
  % inhibition T4 130' 20: -8.629%
DRC-1, read at 130', concentration 40
  % inhibition T4 130' 40: -2.723%
DRC-1, read at 130', concentration 80
  % inhibition T4 130' 80: 26.2784%
DRC-2, concentration 2.5
  % inhibition T4 10' 2.5: 12%
DRC-2, concentration 5
  % inhibition T4 10' 5: 9%
DRC-2, concentration 10
  % inhibition T4 10' 10: -0.482%
DRC-2, concentration 20
  % inhibition T4 10' 20: -17%
DRC-2, concentration 40
  % inhibition T4 10' 40: -12%
DRC-2, concentration 80
  % inhibition T4 10' 80: -1.89%
DRC-2, read at 40', concentration 2.5
  % inhibition T4 40' 2.5: 13%
DRC-2, read at 40', concentration 5
  % inhibition T4 40' 5: 10%
DRC-2, read at 40', concentration 10
  % inhibition T4 40' 10: 2%
DRC-2, read at 40', concentration 20
  % inhibition T4 40' 20: -13%
DRC-2, read at 40', concentration 40
  % inhibition T4 40' 40: -9%
DRC-2, read at 40', concentration 80
  % inhibition T4 40' 80: 3.39%
DRC-2, read at 90', concentration 2.5
  % inhibition T4 90' 2.5: 13%
DRC-2, read at 90', concentration 5
  % inhibition T4 90' 5: 12%
DRC-2, read at 90', concentration 10
  % inhibition T4 90' 10: 2.84%
DRC-2, read at 90', concentration 20
  % inhibition T4 90' 20: -10%
DRC-2, read at 90', concentration 40
  % inhibition T4 90' 40: -5.54%
DRC-2, read at 90', concentration 80
  % inhibition T4 90' 80: 3.63%
DRC-2, read at 180', concentration 2.5
  % inhibition T4 180' 2.5: 12%
DRC-2, read at 180', concentration 5
  % inhibition T4 180' 5: 11%
DRC-2, read at 180', concentration 10
  % inhibition T4 180' 10: 4%
DRC-2, read at 180', concentration 20
  % inhibition T4 180' 20: -10%
DRC-2, read at 180', concentration 40
  % inhibition T4 180' 40: -6.49%
DRC-2, read at 180', concentration 80
  % inhibition T4 180' 80: 2.15%

## Cc1ccc(-n2nnc(C(=O)O)c2-c2ccccn2)c(F)c1 [Molecule 54, Cc1ccc(c(c1)F)n1nnc(c1c1ccccn1)C(=O)O]
DRC-2, concentration 2.5
  % inhibition T4 10': 18%
  % inhibition T4 40': 18%
  % inhibition T4 90': 17%
DRC-2, concentration 5
  % inhibition T4 10': 23%
  % inhibition T4 40': 23%
DRC-2, concentration 10
  % inhibition T4 10': 30%
  % inhibition T4 40': 30%
  % inhibition T4 90': 27%
  % inhibition T4 180': 22%
DRC-2, concentration 40
  % inhibition T4 10': 27%
  % inhibition T4 40': 27%
  % inhibition T4 90': 23%
  % inhibition T4 180': 20%
DRC-2, concentration 80
  % inhibition T4 10': 24%
  % inhibition T4 40': 24%
  % inhibition T4 90': 22%
  % inhibition T4 180': 20%
DRC-2, concentration 20
  % inhibition T4 90': 22%
  % inhibition T4 180': 17%
